Target: human MDM2 protein (amino acids 2-188) (Homo sapiens (Human), UniProt Q00987)
Assay: TR-FRET assay, p53-MDM2 Assay 2 (modified)
Format: binding
Conditions: TR-FRET; 0.1 nM MDM2, 0.1 nM Europium labeled streptavidin, Tecan genios Pro reader; read-out: IC50 p53-MDM2 Assay 2
Summary of the method: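 Biotinylated human MDM2 (aa 2–188, 1.25 nM) was preincubated 15 min at room temperature with 0.625 nM Eu-streptavidin, then 10 nM Cy5-p53 peptide (aa 18–26) added for 15 min. TR-FRET ratio 665/620 nm (excitation 340 nm) was read; IC50 came from curve fitting.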

human MDM2 protein (amino acids 2-188), sequence (Q00987 2-188): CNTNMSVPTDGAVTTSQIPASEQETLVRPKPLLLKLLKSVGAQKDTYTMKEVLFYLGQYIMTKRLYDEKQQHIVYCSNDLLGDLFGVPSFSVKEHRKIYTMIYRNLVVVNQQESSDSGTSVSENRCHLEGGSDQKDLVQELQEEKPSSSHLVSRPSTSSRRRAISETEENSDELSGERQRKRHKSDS

IC50 [nM] | SMILES
1.39 | COc1ncc(-c2cc3c(n2C(C)C)C(c2ccc(Cl)cc2)N([C@H]2CC[C@H](O)CC2)C3=O)c(OC)n1 (stereo partly drawn) [Example 66, 6-(4-Chloro-phenyl)-2-(2,4-dimethoxy-pyrimidin-5-yl)-5-(trans-4-hydroxy-cyclohexyl)-1-isopropyl-5,6-dihydro-1H-pyrrolo[3,4-b]pyrrol-4-one]
2.49 | COc1ccc(C#N)cc1-c1cc2c(n1C(C)C)C(c1ccc(Cl)cc1)N([C@H]1CC[C@H](O)CC1)C2=O (stereo partly drawn) [Example 67, 3-[6-(4-Chloro-phenyl)-5-(trans-4-hydroxy-cyclohexyl)-1-isopropyl-4-oxo-1,4,5,6-tetrahydro-pyrrolo[3,4-b]pyrrol-2-yl]-4-methoxy-benzonitrile]
0.777 | COc1nc(N(C)C)ncc1-c1cc2c(n1C(C)C)C(c1ccc(Cl)cc1)N([C@H]1CC[C@H](O)CC1)C2=O (stereo partly drawn) [Example 69, 6-(4-Chloro-phenyl)-2-(2-dimethylamino-4-methoxy-pyrimidin-5-yl)-5-(trans-4-hydroxy-cyclohexyl)-1-isopropyl-5,6-dihydro-1H-pyrrolo[3,4-b]pyrrol-4-one]
0.235 | COc1ncc(-c2cc3c(n2C(C)C)C(c2ccc(Cl)cc2)N(c2cc(Cl)cn(C)c2=O)C3=O)c(OC)n1 (centres unmarked) [Example 70, 5-(5-Chloro-1-methyl-2-oxo-1,2-dihydro-pyridin-3-yl)-6-(4-chloro-phenyl)-2-(2,4-dimethoxy-pyrimidin-5-yl)-1-isopropyl-5,6-dihydro-1H-pyrrolo[3,4-b]pyrrol-4-one]
0.635 | COc1nc(N)ncc1-c1cc2c(n1C(C)C)C(c1ccc(Cl)cc1)N(c1cc(Cl)cn(C)c1=O)C2=O (centres unmarked) [Example 71, 2-(2-Amino-4-methoxy-pyrimidin-5-yl)-5-(5-chloro-1-methyl-2-oxo-1,2-dihydro-pyridin-3-yl)-6-(4-chloro-phenyl)-1-isopropyl-5,6-dihydro-1H-pyrrolo[3,4-b]pyrrol-4-one]
0.295 | CNc1ncc(-c2cc3c(n2C(C)C)C(c2ccc(Cl)cc2)N(c2cc(Cl)cn(C)c2=O)C3=O)c(OC)n1 (centres unmarked) [Example 72, 5-(5-Chloro-1-methyl-2-oxo-1,2-dihydro-pyridin-3-yl)-6-(4-chloro-phenyl)-1-isopropyl-2-(4-methoxy-2-methylamino-pyrimidin-5-yl)-5,6-dihydro-1H-pyrrolo[3,4-b]pyrrol-4-one]
0.161 | COc1nc(N(C)C)ncc1-c1cc2c(n1C(C)C)C(c1ccc(Cl)cc1)N(c1cc(Cl)cn(C)c1=O)C2=O (centres unmarked) [Example 73, 5-(5-Chloro-1-methyl-2-oxo-1,2-dihydro-pyridin-3-yl)-6-(4-chloro-phenyl)-2-(2-dimethylamino-4-methoxy-pyrimidin-5-yl)-1-isopropyl-5,6-dihydro-1H-pyrrolo[3,4-b]pyrrol-4-one]
2.57 | COc1ccccc1-c1cc2c(n1C(C)C)C(c1ccc(Cl)cc1)N(C1CCOCC1)C2=O (centres unmarked) [Example 74, 6-(4-Chloro-phenyl)-1-isopropyl-2-(2-methoxy-phenyl)-5-(tetrahydro-pyran-4-yl)-5,6-dihydro-1H-pyrrolo[3,4-b]pyrrol-4-one]
1.09 | CNC(=O)c1ccc(OC)c(-c2cc3c(n2C(C)C)C(c2ccc(Cl)cc2)N(C2CCOCC2)C3=O)c1 (centres unmarked) [Example 75, 3-[6-(4-Chloro-phenyl)-1-isopropyl-4-oxo-5-(tetrahydro-pyran-4-yl)-1,4,5,6-tetrahydro-pyrrolo[3,4-b]pyrrol-2-yl]-4-methoxy-N-methyl-benzamide]
1.64 | COc1ncc(-c2cc3c(n2C(C)C)C(c2ccc(Cl)cc2)N(C2CCOCC2)C3=O)c(OC)n1 (centres unmarked) [Example 76, 6-(4-Chloro-phenyl)-2-(2,4-dimethoxy-pyrimidin-5-yl)-1-isopropyl-5-(tetrahydro-pyran-4-yl)-5,6-dihydro-1H-pyrrolo[3,4-b]pyrrol-4-one]
1.51 | COc1ccc(C#N)cc1-c1cc2c(n1C(C)C)C(c1ccc(Cl)cc1)N(C1CCOCC1)C2=O (centres unmarked) [Example 77, 3-[6-(4-Chloro-phenyl)-1-isopropyl-4-oxo-5-(tetrahydro-pyran-4-yl)-1,4,5,6-tetrahydro-pyrrolo[3,4-b]pyrrol-2-yl]-4-methoxy-benzonitrile]
0.423 | COc1nc(N(C)C)ncc1-c1cc2c(n1C(C)C)C(c1ccc(Cl)cc1)N(C1CCOCC1)C2=O (centres unmarked) [Example 79, 6-(4-Chloro-phenyl)-2-(2-dimethylamino-4-methoxy-pyrimidin-5-yl)-1-isopropyl-5-(tetrahydro-pyran-4-yl)-5,6-dihydro-1H-pyrrolo[3,4-b]pyrrol-4-one]
0.115 | COc1ccc(CC(N)=O)cc1-c1cc2c(n1C(C)C)C(c1ccc(Cl)cc1)N(c1cc(Cl)ccc1C)C2=O (centres unmarked) [Example 80, 2-{3-[5-(5-Chloro-2-methyl-phenyl)-6-(4-chloro-phenyl)-1-isopropyl-4-oxo-1,4,5,6-tetrahydro-pyrrolo[3,4-b]pyrrol-2-yl]-4-methoxy-phenyl}-acetamide]
0.148 | CNC(=O)Cc1ccc(OC)c(-c2cc3c(n2C(C)C)C(c2ccc(Cl)cc2)N(c2cc(Cl)ccc2C)C3=O)c1 (centres unmarked) [Example 81, 2-{3-[5-(5-Chloro-2-methyl-phenyl)-6-(4-chloro-phenyl)-1-isopropyl-4-oxo-1,4,5,6-tetrahydro-pyrrolo[3,4-b]pyrrol-2-yl]-4-methoxy-phenyl}-N-methyl-acetamide]
0.152 | COc1ccc(CC(=O)N(C)C)cc1-c1cc2c(n1C(C)C)C(c1ccc(Cl)cc1)N(c1cc(Cl)ccc1C)C2=O (centres unmarked) [Example 82, 2-{3-[5-(5-Chloro-2-methyl-phenyl)-6-(4-chloro-phenyl)-1-isopropyl-4-oxo-1,4,5,6-tetrahydro-pyrrolo[3,4-b]pyrrol-2-yl]-4-methoxy-phenyl}-N,N-dimethyl-acetamide]
4.16 | CCOC(=O)Cc1cnc(OC)c(-c2cc3c(n2C(C)C)C(c2ccc(C#N)cc2)N(c2cccc(Cl)c2F)C3=O)c1 (centres unmarked) [Example 83, {5-[5-(3-Chloro-2-fluoro-phenyl)-6-(4-cyano-phenyl)-1-isopropyl-4-oxo-1,4,5,6-tetrahydro-pyrrolo[3,4-b]pyrrol-2-yl]-6-methoxy-pyridin-3-yl}-acetic acid ethyl ester]
0.482 | COc1cnc(CC(=O)O)cc1-c1cc2c(n1C(C)C)C(c1ccc(C#N)cc1)N(c1cccc(Cl)c1F)C2=O (centres unmarked) [Example 84, {4-[5-(3-Chloro-2-fluoro-phenyl)-6-(4-cyano-phenyl)-1-isopropyl-4-oxo-1,4,5,6-tetrahydro-pyrrolo[3,4-b]pyrrol-2-yl]-5-methoxy-pyridin-2-yl}-acetic acid]
3.16 | CNC(=O)Cc1cnc(OC)c(-c2cc3c(n2C(C)C)C(c2ccc(C#N)cc2)N(c2cccc(Cl)c2F)C3=O)c1 (centres unmarked) [Example 85, 2-{5-[5-(3-Chloro-2-fluoro-phenyl)-6-(4-cyano-phenyl)-1-isopropyl-4-oxo-1,4,5,6-tetrahydro-pyrrolo[3,4-b]pyrrol-2-yl]-6-methoxy-pyridin-3-yl}-N-methyl-acetamide]
0.334 | CNC(=O)Cc1cc(-c2cc3c(n2C(C)C)C(c2ccc(C#N)cc2)N(c2cccc(Cl)c2F)C3=O)c(OC)cn1 (centres unmarked) [Example 86, 2-{4-[5-(3-Chloro-2-fluoro-phenyl)-6-(4-cyano-phenyl)-1-isopropyl-4-oxo-1,4,5,6-tetrahydro-pyrrolo[3,4-b]pyrrol-2-yl]-5-methoxy-pyridin-2-yl}-N-methyl-acetamide]
0.359 | COc1cnc(CC#N)cc1-c1cc2c(n1C(C)C)C(c1ccc(C#N)cc1)N(c1cccc(Cl)c1F)C2=O (centres unmarked) [Example 87, 4-[5-(3-Chloro-2-fluoro-phenyl)-2-(2-cyanomethyl-5-methoxy-pyridin-4-yl)-1-isopropyl-4-oxo-1,4,5,6-tetrahydro-pyrrolo[3,4-b]pyrrol-6-yl]-benzonitrile]
1.64 | COc1ncc(CC#N)cc1-c1cc2c(n1C(C)C)C(c1ccc(C#N)cc1)N(c1cccc(Cl)c1F)C2=O (centres unmarked) [Example 88, 4-[5-(3-Chloro-2-fluoro-phenyl)-2-(5-cyanomethyl-2-methoxy-pyridin-3-yl)-1-isopropyl-4-oxo-1,4,5,6-tetrahydro-pyrrolo[3,4-b]pyrrol-6-yl]-benzonitrile]
0.08 | COc1ccc(C(=O)O)cc1-c1cc2c(n1C(C)C)[C@H](c1ccc(Cl)cc1)N(c1cc(Cl)ccc1C)C2=O [Example 89, 3-[(S)-5-(5-Chloro-2-methyl-phenyl)-6-(4-chloro-phenyl)-1-isopropyl-4-oxo-1,4,5,6-tetrahydro-pyrrolo[3,4-b]pyrrol-2-yl]-4-methoxy-benzoic acid]
6.21 | COc1ccc(C(=O)O)cc1-c1cc2c(n1C(C)C)[C@@H](c1ccc(Cl)cc1)N(c1cc(Cl)ccc1C)C2=O [Example 90, 3-[(R)-5-(5-Chloro-2-methyl-phenyl)-6-(4-chloro-phenyl)-1-isopropyl-4-oxo-1,4,5,6-tetrahydro-pyrrolo[3,4-b]pyrrol-2-yl]-4-methoxy-benzoic acid]
0.061 | COc1ccc(CC(=O)O)cc1-c1cc2c(n1C(C)C)[C@H](c1ccc(Cl)cc1)N(c1cc(Cl)ccc1C)C2=O [Example 91, {3-[(S)-5-(5-Chloro-2-methyl-phenyl)-6-(4-chloro-phenyl)-1-isopropyl-4-oxo-1,4,5,6-tetrahydro-pyrrolo[3,4-b]pyrrol-2-yl]-4-methoxy-phenyl}-acetic acid]
41.9 | COc1ccc(CC(=O)O)cc1-c1cc2c(n1C(C)C)[C@@H](c1ccc(Cl)cc1)N(c1cc(Cl)ccc1C)C2=O [Example 92, {3-[(R)-5-(5-Chloro-2-methyl-phenyl)-6-(4-chloro-phenyl)-1-isopropyl-4-oxo-1,4,5,6-tetrahydro-pyrrolo[3,4-b]pyrrol-2-yl]-4-methoxy-phenyl}-acetic acid]
0.361 | COc1nc(N(C)C)ncc1-c1cc2c(n1C(C)C)C(c1ccc(C#N)cc1)N(c1ccc(F)c(Cl)c1)C2=O (centres unmarked) [Example 93, 4-[5-(3-Chloro-4-fluoro-phenyl)-2-(2-dimethylamino-4-methoxy-pyrimidin-5-yl)-1-isopropyl-4-oxo-1,4,5,6-tetrahydro-pyrrolo[3,4-b]pyrrol-6-yl]-benzonitrile]

— patent US9365576B2, “Pyrrolopyrrolidinone compounds” (Novartis AG, priority 2012, dated 2016)
